According to US9464117B2, “Herbicide-resistant proteins, encoding genes, and uses thereof” (Beijing Dabeinong Technology Group Co., Ltd., priority 2012, dated 2016):

Assays:
Format in all cases: in vivo
[1] = system: Arabidopsis T1 plants transformed with 24DT07 nucleotide sequence; test: Herbicide resistance effect test of transgenic Arabidopsis T1 plants; details: for differences of resistance levels between Arabidopsis T1 plants transformed with 24DT07, substituted, truncated and added 24DT07 nucleotide sequence: comparison of the four 24DT07 genotypes, 560 g ae/ha; for Highly resistant: 560 g ae/ha sprayed (1-fold field concentration), number of plants with growth consistent with blank solvent 7 days after spraying; for Non-resistant: number of dead plants 14 days after spraying
From the text: (§1) 24DT07 gene was used to transform Arabidopsis for the first time. At first, T1 transformants were selected from the background of un-transformed seeds, using glufosinate-ammonium selection scheme. About 40000 T1 seeds are screened among which 195 strains of T1 generation positive transformants (PAT gene) were identified, i.e. the transformation efficiency was about 0.5%. Herbicide resistance effect tests to 2,4-D dimethyl ammonium salt and agroxone of Arabidopsis T1 plants transformed with 24DT07 nucleotide sequence, substituted 24DT07 nucleotide sequence, truncated 24DT07 nucleotide sequence, added 24DT07 nucleotide sequence, control nucleotide sequence respectively and wild-type Arabidopsis plants were performed after 18 days of planting.
(§2) Arabidopsis T1 plants transformed with 24DT07 nucleotide sequence, substituted 24DT07 nucleotide sequence, truncated 24DT07 nucleotide sequence, added 24DT07 nucleotide sequence and control nucleotide sequence respectively and wild-type Arabidopsis plants were sprayed with 2,4-D dimethyl ammonium salt (560 g ae/ha, 1-fold concentration in field), agroxone (560 g ae/ha, 1-fold concentration in field) and blank solvent (water). Resistance conditions of the plants were counted 7 days and 14 days after spraying. Plants with growth conditions consistent with blank solvent (water) 7 days after spaying were classified as highly resistant plants; Plants with curly rosette leaves 7 days after spaying were classified as moderately resistant plants; Plants incapable of bolting 14 days after spaying were classified as low-resistant plants and the dead plants 14 days after spaying were classified as non-resistant plants. Because each Arabidopsis T1 plant is an independent transformation event, significant differences of individual T1 responses can be expected under a given dose.

[2] = system: Arabidopsis T1 plants transformed with added 24DT07 nucleotide sequence; test: as above; details: genotype 24DT07-a; for Highly resistant: 560 g ae/ha sprayed (1-fold field concentration), number of plants with growth consistent with blank solvent 7 days after spraying; for Non-resistant: 560 g ae/ha sprayed, number of dead plants 14 days after spraying
From the text: as §1, §2

[3] = system: Arabidopsis T1 plants transformed with truncated 24DT07 nucleotide sequence; test: as above; details: genotype 24DT07-t; for Highly resistant: 560 g ae/ha sprayed (1-fold field concentration), number of plants with growth consistent with blank solvent 7 days after spraying; for Non-resistant: 560 g ae/ha sprayed, number of dead plants 14 days after spraying
From the text: as §1, §2

[4] = system: Arabidopsis T1 plants transformed with substituted 24DT07 nucleotide sequence; test: as above; details: genotype 24DT07-i; for Highly resistant: 560 g ae/ha sprayed (1-fold field concentration), number of plants with growth consistent with blank solvent 7 days after spraying; for Non-resistant: 560 g ae/ha sprayed, number of dead plants 14 days after spraying
From the text: as §1, §2

[5] = system: maize plants containing 24DT07 nucleotide sequence; test: Herbicide-resistance effect test of the transgenic corn plants (prop root development); details: comparison of the four 24DT07 genotypes; 8960 g ae/ha
Experimental: (§3) Herbicide resistance effects tests to 2,4-D dimethyl ammonium salt and agroxone of maize plants containing 24DT07 nucleotide sequence, 24DT07 substituted nucleotide sequence, 24DT07 truncated nucleotide sequence, 24DT07 added nucleotide sequence, control nucleotide sequence respectively and wild type maize plants (stages V3-V4) were performed respectively.
(§4) Maize plants containing 24DT07 nucleotide sequence, 24DT07 substituted nucleotide sequence, 24DT07 truncated nucleotide sequence, 24DT07 added nucleotide sequence, control nucleotide sequence respectively and wild type maize plants were taken and spayed with 2,4-D dimethyl ammonium salt (8960 g ae/ha, 16-folds concentration in field), agroxone (8960 g ae/ha, 16-folds concentration in field) and blank solvent (water) respectively. Prop root development was counted 21 days after spaying. Three strains (S1, S2, and S3) of corn plants transfected with 24DT07 nucleotide sequence, two strains (S4 and S5) of corn plants transfected with 24DT07 substituted nucleotide sequence, two strains (S6 and S7) of corn plants transfected with 24DT07 truncated nucleotide sequence, two strains (S8 and S9) of corn plants transfected with 24DT07 added nucleotide sequence, two strains (S10 and S11) of corn plants transfected with control nucleotide sequence and 1 strain of wild type (CK) corn were selected and 10-15 plants from each stain were tested.

[6] = system: maize plants containing 24DT07 truncated nucleotide sequence; test: as above; details: 8960 g ae/ha sprayed, 21 days after spraying
Experimental: as §3, §4

[7] = system: maize plants containing 24DT07 substituted nucleotide sequence; test: as above; details: corn strain S5 (24DT07 substituted); 8960 g ae/ha sprayed; 21 days after spraying
Experimental: as §3, §4

[8] = genotype 24DT07, 560 g ae/ha sprayed
[9] = corn strain S7 (24DT07 truncated)

| SMILES | differences of resistance levels between Arabidopsis T1 plants transformed with 24DT07, substituted, truncated and added 24DT07 nucleotide sequence [1] | Highly resistant ([1]; genotype 24DT07) | Non-resistant [1, 8] | Highly resistant [2] | Non-resistant [2] | Highly resistant [3] | Non-resistant [3] | Highly resistant [4] | Non-resistant [4] | differences of resistance levels between corn plants transformed with 24DT07, substituted, truncated and added 24DT07 nucleotide sequence [5] | Ratio of the normally developed prop roots ([6]; corn strain S6 (24DT07 truncated)) [%] | Ratio of the normally developed prop roots [6, 9] [%] | Moderately resistant ([1]; genotype 24DT07, 560 g ae/ha sprayed, number of plants with curly rosette leaves 7 days after spraying) | Ratio of the normally developed prop roots [7] [%] |
| --- | --- | --- | --- | --- | --- | --- | --- | --- | --- | --- | --- | --- | --- | --- |
| CNC.O=C(O)COc1ccc(Cl)cc1Cl [2,4-D dimethyl ammonium salt] | didn't show significant differences | 20 | 0 | 17 | 0 | 16 | 0 | 18 | 0 | didn't show significant differences | 92.31 | 93.33 | – | – |
| Cc1cc(Cl)ccc1OCC(=O)O [agroxone] | didn't show significant differences | 19 | 0 | 15 | 0 | 18 | 0 | 17 | 0 | didn't show significant differences | – | 91.67 | 3 | 92.86 |
